In one series the target is T1, MASTL (Homo sapiens, UniProt Q96GX5).
T1 sequence (Q96GX5 1-879): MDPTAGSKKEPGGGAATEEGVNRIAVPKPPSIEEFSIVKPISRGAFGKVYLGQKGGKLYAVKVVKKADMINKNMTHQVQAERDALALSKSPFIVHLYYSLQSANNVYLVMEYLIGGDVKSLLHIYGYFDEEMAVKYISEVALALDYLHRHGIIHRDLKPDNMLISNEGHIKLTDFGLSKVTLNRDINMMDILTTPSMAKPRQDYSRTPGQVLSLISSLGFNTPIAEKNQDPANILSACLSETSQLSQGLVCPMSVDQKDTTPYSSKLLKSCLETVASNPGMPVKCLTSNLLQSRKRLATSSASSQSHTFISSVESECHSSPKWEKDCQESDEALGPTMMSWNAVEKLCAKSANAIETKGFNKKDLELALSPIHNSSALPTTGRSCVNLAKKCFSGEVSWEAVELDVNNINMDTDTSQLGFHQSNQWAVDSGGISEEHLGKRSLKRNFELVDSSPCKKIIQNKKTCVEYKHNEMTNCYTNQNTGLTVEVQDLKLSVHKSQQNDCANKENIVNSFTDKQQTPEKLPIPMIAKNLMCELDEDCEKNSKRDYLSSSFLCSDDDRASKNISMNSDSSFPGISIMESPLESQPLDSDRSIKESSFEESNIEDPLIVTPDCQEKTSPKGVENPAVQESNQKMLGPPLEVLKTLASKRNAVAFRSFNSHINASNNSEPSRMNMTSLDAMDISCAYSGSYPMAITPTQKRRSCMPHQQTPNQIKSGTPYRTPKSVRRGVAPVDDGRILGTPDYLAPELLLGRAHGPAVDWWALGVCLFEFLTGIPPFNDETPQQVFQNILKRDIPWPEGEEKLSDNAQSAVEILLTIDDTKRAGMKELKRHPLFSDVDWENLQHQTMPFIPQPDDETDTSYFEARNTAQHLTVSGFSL
The following applies: reported MASTL inhibitors, background art; cited from earlier work.

Series [1] in a line: Cell viability analysis, WST-8 assay, MCF10A. The following applies: human, mcf10a cells. A general note: Formazan colour is commonly taken as a measure of viable cells.
Protocol: (§1) MCF7 breast cancer cell lines and MCF10A normal breast cancer cell lines were treated with serial dilutions of the compounds of the present invention ranging from 1 µM to 15.63 nM for 72 hours. Cell viability was measured by the WST-8 assay (Cyto XTM cell viability assay kit; LPS solution, Daejeon, Korea) according to the manufacturer's instructions.
Series [2] deals with MCF10A normal breast cell lines. The series is described as follows: Cell viability analysis, WST-8 assay, MCF10A.
Protocol: as §1
The target in series [3] is T2, Recombinant GST-TAG-MASTL (Homo sapiens, UniProt Q96GX5).
T2 construct: GST; purchased Thermo Fisher Scientific
T2 sequence (Q96GX5 1-879): T1 sequence (Q96GX5 1-879)
The series is described as follows: HTRF-based kinase assay (HTRF KinEASE assay kit). Format: biochemical. The following applies: for IC50: HTRF, read-out: IC50(nM) MASTL activity; for activity at 1 µM / MASTL activity (%) HTRF (1 µM): compound 1 µM; for activity at 1 µM: read-out: MASTL activity (%) HTRF (1 µM). From the text:
Recombinant GST-TAG-MASTL (Thermo Fisher Scientific, MA, USA) was used for HTRF-based kinase assays. The HTRF KinEASE assay kit (CisBio, MA, USA) was used according to the manufacturer's instructions.
On the technique in general: In TR-FRET formats the signal depends on donor and acceptor labels being close together.

The subject of the next series is pENSA. The series is described as follows: pENSA level by immunofluorescence (described method: in vitro kinase analysis with GST-tag-MASTL and His-tag-ENSA). It is filed as cell-based. As to conditions: for pENSA (%) Immunofluor ecense (1 µM): compound 1 µM. The gist of the method: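 In vitro kinase reaction using recombinant GST-tagged MASTL with His-tagged ENSA as substrate; phosphorylated ENSA (pENSA) serves as read-out of MASTL activity. Cell lines named: MCF7 breast cancer and MCF10A.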

The subject of series [4] is MCF7 breast cancer cell lines. The series is described as follows: Cell viability analysis, WST-8 assay, MCF7. The following applies: for Cell viability (%) WST-8, MCF7 (1 µM): compound 1 µM, 72 hours.
Protocol: as §1
For series [5], the system named is MCF10A normal breast cancer cell lines. The series is described as follows: Cell viability analysis, WST-8 assay, MCF10A. As to conditions: compound 1 µM, 72 hours.
Protocol: as §1
A short description of a further series: in vitro. As to conditions: human.
Setting [6] is: Homo sapiens, MCF-10A, 72 h, read-out: IC50(nM) Cell viability (MCF10A).
Setting [7] is: Homo sapiens, MCF7, 72 h, read-out: IC50(nM) Cell viability (MCF7).
[8] abbreviates: read-out: IC50(nM) Cell viability (MCF10A), MCF10A, WST-8, 72 hours.
Where [9] appears, read: read-out: IC50(nM) Cell viability (MCF7), MCF7, WST-8, 72 hours.
The mark [10] stands for this setting: Homo sapiens, MCF7, 72 h, read-out: Cell viability (%) WST-8, MCF7 (1 µM), compound 1 µM, 72 hours.

Like-named read-outs stand apart in the source and are kept apart here.

For the molecule `Clc1ccc(Nc2cccc(-c3cn[nH]c3)c2)cc1` [GKI-1], the IC50 on MASTL was 4900 nM.
In the case of `N#CCc1ccc(Nc2nc(Nc3cc(C4CC4)[nH]n3)c3ccccc3n2)cc1` [compound 3a, 2-(4-((4-((5-cyclopropyl-1G-pyrazol-3-yl)amino)quinazolin-2-yl)amino)phenyl)acetonitrile], the viability at 1 µM amounted to 1.6% in series [1] and 0.05% in series [4] (Homo sapiens, MCF7, 72 h, read-out: Cell viability (%) WST-8, MCF7 (1 µM)). Moreover, the IC50 is 29 nM in series [2] (setting [6]), 178 nM in series [3], 100 nM in the series with pENSA (read-out: IC50(nM) pENSA) and 207 nM in series [4] (setting [7]). In addition, the activity at 1 µM in series [3] turned out to be 20.8%. Further, the “pENSA (%) Immunofluor ecense (1 µM)” value in the series with pENSA was found to be 5.1%.
As to `O=S(=O)(C1CCCCC1)N1CC2CCC1CN2c1nc(Nc2cc(C3CC3)[nH]n2)c2ccccc2n1` (centres unmarked) [compound 24b, 2-(5-(cyclohexylsulfonyl)-2,5-diazabicyclo[2.2.2]octan-2-yl)-M-(5-cyclopropyl-1G-pyrazol-3-yl)quinazolin-4-amine], the “Cell viability (%) WST-8, MCF10A (1 µM)” value in series [5] is reported as 26.5%. Further, the values for the IC50 (in series [2] (setting [8]); in series [3]; on pENSA (read-out: IC50(nM) pENSA)) were 684 nM, 198 nM and 770 nM, respectively. Moreover, the “MASTL activity (%) HTRF (1 µM)” value in series [3] is 24.8%. Also, the “pENSA (%) Immunofluor ecense (1 µM)” value in the series with pENSA came to 36%. Also, in series [4], the “Cell viability (%) WST-8, MCF7 (1 µM)” value is on record as 90.7%.
Regarding `O=C(Nc1nc2ccccc2[nH]1)c1cccc(-n2cccc2)c1` [MKI-1], the IC50 at MASTL was 9900 nM.
Consider `N#Cc1ccccc1S(=O)(=O)N1CC2CCC1CN2c1nc(Nc2cc(C3CC3)[nH]n2)c2ccccc2n1` (centres unmarked) [compound 24e, 2-((5-(4-((5-cyclopropyl-1G-pyrazol-3-yl)amino)quinazolin-2-yl)-2,5-diazabicyclo[2.2.2]octan-2-yl)sulfonyl)benzonitrile], for which the “Cell viability (%) WST-8, MCF10A (1 µM)” value in series [5] came to 2.8%. Moreover, the IC50 in series [2] (setting [8]) came out at 184 nM; in series [3], 213 nM; at pENSA (unit µM, read-out: IC50 pENSA), 1900 nM; in series [4] (setting [9]) it was 543 nM. Further, the “MASTL activity (%) HTRF (1 µM)” value in series [3] worked out at 10.8%. For the same molecule, the “pENSA (%) Immunofluor ecense (1 µM)” value with pENSA is reported as 4.1%. Besides, the “Cell viability (%) WST-8, MCF7 (1 µM)” value in series [4] was 2.2%.
With `O=S(=O)(c1cccs1)N1CC2CCC1CN2c1nc(Nc2cc(C3CC3)[nH]n2)c2ccccc2n1` (centres unmarked) [compound 24d, M-(5-cyclopropyl-1G-pyrazol-3-yl)-2-(5-(thiophen-2-ylsulfonyl)-2,5-diazabicyclo[2.2.2]octan-2-yl)quinazolin-4-amine], the “Cell viability (%) WST-8, MCF10A (1 µM)” value in series [5] turned out to be 4.9%. The IC50 in series [2] (setting [8]) was found to be 210 nM; in series [3], 597 nM; on pENSA (unit µM, read-out: IC50 pENSA), 1900 nM; in series [4] (setting [9]), 626 nM. Moreover, the “MASTL activity (%) HTRF (1 µM)” value in series [3] is 32.9%. For the same molecule, the “pENSA (%) Immunofluor ecense (1 µM)” value in the series on pENSA was determined as 2.6%. Further, the “Cell viability (%) WST-8, MCF7 (1 µM)” value in series [4] was 6.4%.
As to `COc1ccc(CNc2nc(Nc3cc(C4CC4)[nH]n3)c3ccccc3n2)cc1` [4ad, M^4-(5-cyclopropyl-1G-pyrazol-3-yl)-M^2-(4-methoxybenzyl)quinazoline-2,4-diamine], the “Cell viability (%) WST-8, MCF10A (1 µM)” value in series [5] stood at 96.0%. Besides, the “MASTL activity (%) HTRF (1 µM)” value in series [3] was 65.7%. Further, the “pENSA (%) Immunofluor ecense (1 µM)” value in the series with pENSA is on record as 143%. The “Cell viability (%) WST-8, MCF7 (1 µM)” value in series [4] amounted to 96.4%.
In the case of `CC(C)S(=O)(=O)N1CC2CCC1CN2c1nc(Nc2cc(C3CC3)[nH]n2)c2ccccc2n1` (centres unmarked) [compound 24a, M (5-cyclopropyl-1G-pyrazol-3-yl)-2-(5-(isopropylsulfonyl)-2,5-diazabicyclo[2.2.2]octan-2-yl)quinazolin-4-amine], the “Cell viability (%) WST-8, MCF10A (1 µM)” value in series [5] worked out at 15.7%. Moreover, the IC50 in series [2] (setting [8]) is 420 nM; in series [3], 180 nM; at pENSA (read-out: IC50(nM) pENSA), 263 nM; in series [4] (setting [9]), 954 nM. Moreover, the “MASTL activity (%) HTRF (1 µM)” value in series [3] amounted to 29.9%. Besides, the “pENSA (%) Immunofluor ecense (1 µM)” value with pENSA was 14%. For the same molecule, the “Cell viability (%) WST-8, MCF7 (1 µM)” value in series [4] worked out at 4.8%.
As for `O=S(=O)(c1ccccc1)N1CC2CC1CN2c1nc(Nc2cc(C3CC3)[nH]n2)c2ccccc2n1` (centres unmarked) [compound 15m, M-(5-cyclopropyl-1G-pyrazol-3-yl)-2-(5-(phenylsulfonyl)-2,5-diazabicyclo[2.2.1]heptan-2-yl)quinazolin-4-amine], the IC50 in series [2] (Homo sapiens, MCF-10A, 72 h, read-out: IC50 Cell viability (MCF10A)) came out at 1900 nM; in series [3], 490 nM; in series [4] (Homo sapiens, MCF7, 72 h, read-out: IC50 Cell viability (MCF7)), 4200 nM. Besides, the activity at 1 µM in series [3] came to 28.7%. The “pENSA (%) Immunofluor ecense (1 µM)” value in the series on pENSA is 82.6%. For the same molecule, the viability at 1.1 µM stood at 111% in series [4] (Homo sapiens, MCF7, 72 h, read-out: Cell viability (%) WST-8, MCF7, footnote d: concentration 1.1 µM, 72 hours) and 82.2% in the series “in vitro” (mcf10a cells).
For the molecule `O=C(O)Cc1ccc(Nc2nc(Nc3cc(C4CC4)[nH]n3)c3ccccc3n2)cc1` [compound 4s, 2-(4-((4-((5-cyclopropyl-1G-pyrazol-3-yl)amino)quinazolin-2-yl)amino)phenyl)acetic acid], the IC50 in series [2] (setting [6]) was found to be 113 nM; in the series with pENSA (read-out: IC50(nM) pENSA), 89.1 nM; in series [4] (setting [7]) it was 102 nM. Moreover, the activity at 1 µM in series [3] stood at 56.2%. Further, the “pENSA (%) Immunofluor ecense (1 µM)” value in the series on pENSA was determined as 89.1%. In addition, the viability at 1 µM was 102% in series [4] (setting [10]) and 113% in “in vitro” (mcf10a cells).
In the case of `c1ccc(Nc2nc(Nc3cc(C4CC4)[nH]n3)c3ccccc3n2)cc1` [compound 4a, M^4-(5-cyclopropyl-1G-pyrazol-3-yl)-M^2-phenylquinazoline-2,4-diamine], the IC50 amounted to 881 nM in series [2] (setting [6]), 987 nM in series [3], 501 nM in the series with pENSA (read-out: IC50(nM) pENSA) and 649 nM in series [4] (setting [7]). In series [3] (footnote a: concentration 1.25 µM, read-out: MASTL activity (%) HTRF), the activity at 1.25 µM is 54.9%. Besides, the “pENSA (%) Immunofluor ecense (1 µM)” value in the series with pENSA is 3.7%. The viability at 1.25 µM worked out at 8.1% in series [4] (Homo sapiens, MCF7, 72 h, read-out: Cell viability (%) WST-8, MCF7, footnote a: concentration 1.25 µM, 72 hours) and 34% in “in vitro” (mcf10a cells).
As to `c1ccc2c(Nc3cc(C4CC4)[nH]n3)nc(Nc3ccc4[nH]ncc4c3)nc2c1` [compound 4dd, N^4-(5-cyclopropyl-1H-pyrazol-3-yl)-N^2-(1H-indazol-5-yl)quinazoline-2,4-diamine], the 50% inhibitory concentration (IC50) in series [2] (setting [6]) came to 107 nM; in series [3], 157 nM; with pENSA (unit µM, read-out: IC50 pENSA), 1500 nM; in series [4] (setting [7]), 317 nM. Besides, the activity at 1 µM in series [3] is 17.9%. The viability at 1 µM was determined as 12.9% in series [4] (setting [10]) and 3.7% in “in vitro”.

One may read the IC50 as the concentration needed to halve the response being measured.

The record behind these values is patent publication EP4786466A1, “QUINAZOLINE DERIVATIVE, SALT THEREOF, AND PHARMACEUTICAL COMPOSITION COMPRISING SAME AS ACTIVE INGREDIENT” (Korea Research Institute of Chemical Technology, priority 2023, dated 2025).
